Reference: patent US20100298340A1, “Thiazol-Guanidine Derivatives Useful As A (Beta)-Related Pathologies” (AstraZeneca AB, priority 2006, published 2010)

Molecular target: T1, human β-Secretase (Homo sapiens, UniProt P56817)
T1 construct: The soluble part of the human β-Secretase (AA 1-AA 460) was cloned; Fc domain of IgG1 (C); made in house
Assay: TR-FRET Assay
Assay type: biochemical
Procedure: The enzyme used in the IGEN Cleavage-, Fluorescent-, TR-FRET- and the BiaCore assay is described as follows:
The soluble part of the human β-Secretase (AA 1-AA 460) was cloned into the ASP2-Fc10-1-IRES-GFP-neoK mammalian expression vector. The gene was fused to the Fc domain of IgG1 (affinity tag) and stably cloned into HEK 293 cells. Purified sBACE-Fc is stored in Tris buffer, pH 9.2 and has a purity of 95%.
Dilute the enzyme (truncated form) to 6 μg/mL (stock 1.3 mg/mL) and the substrate (Europium)CEVNLDAEFK(Qsy7) to 200 nM (stock 60 μM) in reaction buffer (NaAcetate, chaps, triton x-100, EDTA pH4.5). The Biomek FX is used for all liquid handling and the enzyme and substrate solutions are kept on ice until they are placed in Biomek FX. Enzyme (9 μl) is added to the plate then 1 μl of compound in dimethylsulphoxide is added, mixed and pre-incubated for 10 minutes. Substrate (10 μl) is then added, mixed and the reaction proceeds in the dark for 15 minutes at room temperature. The reaction is stopped with the addition of Stop solution ([…] pH 9). The fluorescence of the product is measured on a Victor II plate reader with an excitation wavelength of 340 nm and an emission wavelength of 615 nm. The assay is done in a Costar 384 well round bottom, low volume, non-binding surface (Corning #3676). The final concentration of the enzyme is 0.3 nM; the final concentration of substrate is 100 nM (Km of ˜250 nM). The dimethylsulphoxide control defines the 100% activity level and 0% activity is defined by only addition of the peptide substrate.

T1 sequence (P56817 22-460): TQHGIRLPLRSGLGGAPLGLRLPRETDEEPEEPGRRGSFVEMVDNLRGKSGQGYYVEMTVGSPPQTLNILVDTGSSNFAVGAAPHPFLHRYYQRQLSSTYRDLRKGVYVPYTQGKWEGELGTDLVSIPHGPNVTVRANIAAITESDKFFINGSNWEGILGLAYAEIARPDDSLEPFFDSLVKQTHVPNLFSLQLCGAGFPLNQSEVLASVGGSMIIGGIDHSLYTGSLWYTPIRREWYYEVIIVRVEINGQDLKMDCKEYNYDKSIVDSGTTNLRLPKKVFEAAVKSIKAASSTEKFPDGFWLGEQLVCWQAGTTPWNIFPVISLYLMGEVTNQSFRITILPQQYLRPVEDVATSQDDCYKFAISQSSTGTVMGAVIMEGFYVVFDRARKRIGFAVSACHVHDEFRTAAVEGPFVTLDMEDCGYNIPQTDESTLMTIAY

Row | IC50 | Structure (SMILES)
1 | 4.47 µM | Cc1nc(NC(=N)N)sc1-c1cccc(NC(=O)c2ccc(-c3csnn3)cc2)c1 [Example 17, N-[3-(2-{[Amino(imino)methyl]amino}-4-methyl-1,3-thiazol-5-yl)phenyl]-4-(1,2,3-thiadiazol-4-yl)benzamide]
2 | 6.03 µM | CCc1ccc2c(Cl)c(C(=O)Nc3cccc(-c4sc(NC(=N)N)nc4C)c3)sc2c1 [Example 18, N-[3-(2-{[Amino(imino)methyl]amino}-4-methyl-1,3-thiazol-5-yl)phenyl]-3-chloro-6-ethyl-1-benzothiophene-2-carboxamide]
3 | 5.01 µM | CCc1nc(NC(=N)N)sc1-c1ccc(NCC2CCN(C(=O)OCc3ccccc3)CC2)cc1 [Example 20, Benzyl 4-({[4-(2-{[amino(imino)methyl]amino}-4-ethyl-1,3-thiazol-5-yl)phenyl]amino}methyl)piperidine-1-carboxylate]
